From patent publication US5348946A, “Heteroanthracycline antitumor analogs” (Biochem Immunosystems, Inc., priority 1991, dated 1994)

Columns and labels:
Format in all cases: cell-based
DMS 114 = assay: in vitro cytotoxicity evaluation, Small Cell Lung Cancer; settings: Homo sapiens, 48 h, DMS 114, two days, sulforhodamine B
Protocol: BCH-255 (compound 39) was subjected to an in vitro cytotoxicity evaluation against 59 tumor cell lines to assess its potential as an anticancer drug. These assays were carried out at the Developmental Therapeutics Program, Division of Cancer Treatment, National Cancer Institute (Bethesda, Md., USA). The method consists of incubating varying concentrations of the drug with an inoculum of cells for two days. At the end of the assay, the number of viable cells is estimated with a dye, sulforhodamine B. The protocol is described in M. R. Boyd, "Status of the NCI Preclinical Antitumor Drug Discovery Screen", Principles and Practices of Oncology, 3, pp. 1-12, 1989.
There are three parameters calculated: GI50, the log molar concentration of drug required to inhibit cell growth by 50%; TGI, the log molar concentration of drug required to completely block cell growth; LC50, the log molar concentration of drug required to reduce the original cell number by 50%. It should be noted that the first two parameters (GI50 and TGI) relate to antiproliferation effects while the third one (LC50) indicates true cytotoxicity.

SF-268 = assay: in vitro cytotoxicity evaluation, CNS Cancer; settings: Homo sapiens, 48 h, SF-268, two days, sulforhodamine B
Protocol: (§1) These assays were carried out at the Developmental Therapeutics Program, Division of Cancer Treatment, National Cancer Institute (Bethesda, Md., USA). The method consists of incubating varying concentrations of the drug with an inoculum of cells for two days.
(§2) It should be noted that the first two parameters (GI50 and TGI) relate to antiproliferation effects while the third one (LC50) indicates true cytotoxicity.

SNB-78 = assay: in vitro cytotoxicity evaluation, CNS Cancer; settings: Homo sapiens, 48 h, SNB-78, two days, sulforhodamine B
Protocol: as §1, §2

F498 = assay: in vitro cytotoxicity evaluation, CNS Cancer; settings: Homo sapiens, 48 h, F498, two days, sulforhodamine B
Protocol: as §1, §2

SNB-19 = assay: in vitro cytotoxicity evaluation, CNS Cancer; settings: Homo sapiens, 48 h, SNB-19, two days, sulforhodamine B
Protocol: as §1, §2

U251 = assay: in vitro cytotoxicity evaluation, CNS Cancer; settings: Homo sapiens, U-251, 48 h, U251, two days, sulforhodamine B
Protocol: as §1, §2

SF-539 = assay: in vitro cytotoxicity evaluation, CNS Cancer; settings: Homo sapiens, 48 h, SF-539, two days, sulforhodamine B
Protocol: as §1, §2

SNB-75 = assay: in vitro cytotoxicity evaluation, CNS Cancer; settings: Homo sapiens, 48 h, SNB-75, two days, sulforhodamine B
Protocol: as §1, §2

SF-295 = assay: in vitro cytotoxicity evaluation, CNS Cancer; settings: Homo sapiens, 48 h, SF-295, two days, sulforhodamine B
Protocol: as §1, §2

OVCAR-4 = assay: in vitro cytotoxicity evaluation, Ovarian Cancer; settings: Homo sapiens, 48 h, OVCAR-4, two days, sulforhodamine B
Protocol: as §1, §2

OVCAR-8 = assay: in vitro cytotoxicity evaluation, Ovarian Cancer; settings: Homo sapiens, 48 h, OVCAR-8, two days, sulforhodamine B
Protocol: as §1, §2

IGROV-1 = assay: in vitro cytotoxicity evaluation, Ovarian Cancer; settings: Homo sapiens, 48 h, IGROV-1, two days, sulforhodamine B
Protocol: as §1, §2

OVCAR-5 = assay: in vitro cytotoxicity evaluation, Ovarian Cancer; settings: Homo sapiens, 48 h, OVCAR-5, two days, sulforhodamine B
Protocol: as §1, §2

OVCAR-3 = assay: in vitro cytotoxicity evaluation, Ovarian Cancer; settings: Homo sapiens, 48 h, OVCAR-3, two days, sulforhodamine B
Protocol: as §1, §2

SK-OV-3 = assay: in vitro cytotoxicity evaluation, Ovarian Cancer; settings: Homo sapiens, 48 h, SK-OV-3, two days, sulforhodamine B
Protocol: as §1, §2

DMS 273 = assay: in vitro cytotoxicity evaluation, Small Cell Lung Cancer; settings: Homo sapiens, 48 h, DMS 273, two days, sulforhodamine B
Protocol: as §1, §2

HT 29 = assay: in vitro cytotoxicity evaluation, Colon Cancer; settings: Homo sapiens, 48 h, HT 29, two days, sulforhodamine B
Protocol: as §1, §2

HI-60TB = assay: in vitro cytotoxicity evaluation, Leukemia; settings: Homo sapiens, 48 h, two days, sulforhodamine B
[1] = read-out: LOG10 G150 (GI50) (converted)
[2] = read-out: Log10 TGI (converted)
[3] = read-out: Log10 LC50 (converted)

With `COc1c2c(c(OC)c3c(=O)c4ccccc4sc13)CS(=O)(=O)[C@@H]2O[C@H]1C[C@H](N)[C@H](O)[C@H](C)O1` [BCH-255, (1S ) 1-daunosamine-4-11-dimethoxy-5-oxo-5-H-1,3-dihydrothioxantheno [2,3-c] thiophene-2,2-dioxide] the GI50 (DMS 114; [1]) was 17.8 µM, the IC (total growth inhibition (TGI)) (DMS 114; [2]) was 37.2 µM and the GI50 (SF-268; [1]) was 20.9 µM. For the same molecule, the CC50 (SF-268; [3]) was greater than 100 µM, the IC (total growth inhibition (TGI)) (SF-268; [2]) was 52.5 µM and the GI50 (SNB-78; [1]) was 20.4 µM. For the same molecule, the CC50 (SNB-78; [3]) was 91.2 µM, the IC (total growth inhibition (TGI)) (SNB-78; [2]) was 42.7 µM and the GI50 (F498; [1]) was 16.6 µM. For the same molecule, the CC50 (F498; [3]) was 58.9 µM, the IC (total growth inhibition (TGI)) (F498; [2]) was 31.6 µM and the GI50 (SNB-19; [1]) was 30.9 µM. The CC50 (SNB-19; [3]) was greater than 100 µM, the IC (total growth inhibition (TGI)) (SNB-19; read-out: Log10 TGI) was greater than 100 µM and the GI50 (U251; [1]) was 17.4 µM. For the same molecule, the CC50 (U251; [3]) was 56.2 µM, the IC (total growth inhibition (TGI)) (U251; [2]) was 31.6 µM and the GI50 (SF-539; [1]) was 17.4 µM. It also gave a CC50 (SF-539; [3]) of 57.5 µM, an IC (total growth inhibition (TGI)) (SF-539; [2]) of 31.6 µM and a GI50 (SNB-75; [1]) of 15.8 µM. The CC50 (SNB-75; [3]) was 57.5 µM, the IC (total growth inhibition (TGI)) (SNB-75; [2]) was 30.2 µM and the GI50 (SF-295; [1]) was 16.2 µM. It also gave a CC50 (SF-295; [3]) of 63.1 µM, an IC (total growth inhibition (TGI)) (SF-295; [2]) of 32.4 µM and a GI50 (OVCAR-4; [1]) of 18.2 µM. It also gave a CC50 (OVCAR-4; [3]) of 64.6 µM, an IC (total growth inhibition (TGI)) (OVCAR-4; [2]) of 34.7 µM and a GI50 (OVCAR-8; [1]) of 19.5 µM. For the same molecule, the CC50 (OVCAR-8; [3]) was 74.1 µM, the IC (total growth inhibition (TGI)) (OVCAR-8; [2]) was 38 µM and the GI50 (IGROV-1; [1]) was 16.6 µM. The CC50 (IGROV-1; [3]) was 87.1 µM, the IC (total growth inhibition (TGI)) (IGROV-1; [2]) was 38 µM and the GI50 (OVCAR-5; [1]) was 39.8 µM. For the same molecule, the CC50 (OVCAR-5; [3]) was greater than 100 µM, the IC (total growth inhibition (TGI)) (OVCAR-5; read-out: Log10 TGI) was greater than 100 µM and the GI50 (OVCAR-3; [1]) was 15.5 µM. The CC50 (OVCAR-3; [3]) was 64.6 µM, the IC (total growth inhibition (TGI)) (OVCAR-3; [2]) was 31.6 µM and the GI50 (SK-OV-3; [1]) was 19.1 µM. For the same molecule, the CC50 (SK-OV-3; [3]) was 85.1 µM, the IC (total growth inhibition (TGI)) (SK-OV-3; [2]) was 40.7 µM and the GI50 (DMS 273; [1]) was 18.2 µM. It also gave a CC50 (DMS 273; [3]) of 70.8 µM, an IC (total growth inhibition (TGI)) (DMS 273; [2]) of 35.5 µM and a GI50 (HT 29; [1]) of 17.8 µM. The CC50 (HT 29; [3]) was 61.7 µM, the IC (total growth inhibition (TGI)) (HT 29; [2]) was 33.1 µM and the GI50 (HI-60TB; [1]) was 15.8 µM. It also gave a CC50 (HI-60TB; [3]) of 69.2 µM and an IC (total growth inhibition (TGI)) (HI-60TB; [2]) of 33.1 µM.
